From patent publication US6433012B1, “Method for inhibiting inflammatory disease” (Large Scale Biology Corp., priority 1998, dated 2002)
Marks after values point to notes of the source that are not given here.

Legend:
[1] = test system: rhodamine-labeled tubulin; assay: Cell-free fluorescence assay of microtubule assembly; format: biochemical; conditions: 15 μM tubulin, GTP
From the text: Microtubules are major cytoskeletal components composed of α- and β-tubulin heterodimers bound with GTP. […] The effect of the drug on microtubule assembly was investigated directly by using a cell-free fluorescence assay involving the visualization of microtubule formation from rhodamine-labeled tubulin and microtubule seeds in the presence of GTP.

[2] = test system: angiogenesis induced by hFGF-B in the chick chorioallantoic membrane (CAM); assay: Chick chorioallantoic membrane (CAM) assay, 14C-proline incorporation into collagenous protein; format: in vivo; design: inhibition of hFGF-B-induced angiogenesis: dose or concentration left out as unconfirmed
From the text: This example illustrates the anti-angiogenic properties of methyl-3,5-diiodo-4-(4′-methoxyphenoxy)benzoate in the chick chorioallantoic membrane assay (CAM). The endpoint of the CAM assay was a quantitative determination of basement membrane biosynthesis by measuring the incorporation of ^14C-proline into Type IV collagenous protein.
The CAM assay involves the development of live chick embryos in Petri dishes under special sterile conditions. Therefore, only limited numbers of embryos can be used for evaluation of compounds in a single experiment. For this reason, two separate assays were conducted to test the three Biosource compounds at three concentrations per compound. In this assay, a known angiogenesis inhibitor, 2-methoxyestradiol (2-ME), was used as the positive control, and human fibroblast growth factor (hFGF) was used to induce angiogenesis in the CAM.
For testing, a minimum amount of acetone-methanol (1:1) was added to the test compounds for sterilization. The acetone-methanol mixture was then evaporated to dryness in a sterile hood. The compounds were dissolved dimethyl sulfoxide (DMSO) first and then diluted with saline containing methylcellulose. The final concentrations were 2% DMSO and 0.5% methylcellulose. All test solutions were added to each CAM in […].
Fresh fertile eggs were incubated for three days in a standard egg incubator. On Day 3, eggs were cracked under sterile conditions and embryos were placed in 20×100 mm plastic Petri dishes and cultivated at 37° C. in an embryo incubator with a water reservoir on the bottom shelf. Air was continuously bubbled into the water reservoir by using a small pump so that the humidity in the incubator was kept constant. Observations were made daily to ensure that all embryos were healthy. Dead or unhealthy embryos were removed from the incubator immediately to avoid contamination. On Day 9, a sterile silicone ring cup was placed on each CAM and […] of ^14C-proline with or without the test compound plus 2.5 ng of hFGF dissolved in saline containing 0.5% methylcellulose was delivered into each ring cup in a sterile hood. 2-ME was tested in parallel to serve as a reference compound. After addition of test materials, the embryos were returned to the incubator and cultivation continued. On Day 12, all embryos were transferred to a cold room at 4-10° C. The antiangiogenic effect of each test compound was determined by using the collagenase assay (Maragoudakis, et al., J. Pharm. Exp. Ther. 251:679-682 (1989)) to measure ^14C-proline incorporation into collagenous protein.
With the embryos placed on ice, a piece of CAM 10 mm in diameter was cut off under each ring cup and placed in a separate tube. To each tube was added 1.0 mL of phosphate-buffered saline (PBS, pH 7.3) containing 0.11 mg cycloheximide and 0.17 mg dipyridyl. The tubes were placed in a boiling water bath for 10 min and then cooled to room temperature. The PBS in each tube was discarded after centrifugation at 3000× g for 10 min. The CAM residue was washed once with 3 mL of 15% TCA and then three times with 3 mL of 5% TCA. Centrifugation was carried out as described above between each washing. At this point all non-protein bound radioactivity was removed, and the CAM containing the newly synthesized ^14C-collagenous protein was suspended in 0.9 mL of 0.1 N NaOH and 1.1 mL of HEPES buffer at pH 7.4. The pH of the sample was neutralized with 0.8 N HCl, using phenol red as indicator.
To digest the ^14C-collagenous protein, 7.5 units of collagenase and 500 nmol of calcium chloride in […] of HEPES buffer was added to the above samples, and mixtures were incubated at 37° C. for 4 h. The reaction was stopped by adding 1.0 mL of 20% TCA containing 5 mg of tannic acid into each tube. After vortex mixing, the samples were centrifuged at 3000× g for 10 min. […]

[3] = Table 1 experiment, dose 8.3 μg/CAM
[4] = Table 1 experiment, dose 25 μg/CAM
[5] = Table 1 experiment, dose 75 μg/CAM
[6] = Table 2 experiment, dose 8.3 μg/CAM
[7] = Table 2 experiment, dose 25 μg/CAM
[8] = Table 2 experiment, dose 75 μg/CAM

## COC(=O)c1cc(I)c(Oc2ccc(OC)cc2)c(I)c1 [BTO-956, methyl-3,5-diiodo-4-(4′-methoxyphenoxy)benzoate]
[1]; compound 1 μM
  microtubule formation: much shorter structures
[1]; compound 10 μM
  microtubule formation: The same effect was observed
[2]
  inhibition of hFGF-B-induced angiogenesis: 30%
[2]; [3]
  % Inhibition: 0%
  ^14C-Proline Incorporated into Collagenous Protein (mean ± S.E.): 6884 ± 1395 cpm/mg-protien
[2]; [4]
  % Inhibition: 19%
  ^14C-Proline Incorporated into Collagenous Protein (mean ± S.E.): 5098 ± 785 cpm/mg-protien
[2]; [5]
  % Inhibition: 31%
  ^14C-Proline Incorporated into Collagenous Protein (mean ± S.E.): 4374 ± 651 cpm/mg-protien
[2]; [6]
  % Inhibition: 10%
  ^14C-Proline Incorporated into Collagenous Protein (mean ± S.E.): 10138 ± 1625 cpm/mg-protien
[2]; [7]
  % Inhibition: 18%
  ^14C-Proline Incorporated into Collagenous Protein (mean ± S.E.): 9100 ± 1664 cpm/mg-protien
[2]; [8]
  % Inhibition: 32%
  ^14C-Proline Incorporated into Collagenous Protein (mean ± S.E.): 7534 ± 1099^a cpm/mg-protien
